Measurements taken from patent US7192746B2, “α-Isomaltosyltransferase, process for producing the same and use thereof” (Kabushiki Kaisha Hayashibara Seibutsu Kagaku Kenkyujo, priority 2000, dated 2007).

Assays:
Experiment in all cases: Specificity to transferring acceptor
Type in all cases: biochemical
Set-up in all cases: key: −: no saccharide transferred product was formed; ±: a saccharide-transferred product formed in an amount of less than one percent to the total sugars; +: a saccharide-transferred product was formed in an amount of over one percent but below 10% to the total sugars; ++: a saccharide-transferred product was formed in an amount of over 10% to the total sugars
[1] = test system: α-isomaltosyl-transferring enzyme from Bacillus globisporus C11; details: panose as saccharide donor, 10 units/g substrate, 3.2% (w/v), 30° C., pH 6.0, 24 hours
Description: (§1) Saccharides were tested as follows to examine whether they can be used as transferring acceptors for the α-isomaltosyl-transferring enzyme of the present invention. A solution of D-glucose, D-xylose, L-xylose, D-galactose, D-fructose, D-mannose, D-arabinose, D-fucose, L-sorbose, L-rhamnose, methyl-α-glucoside (or methyl-α-glucopyranoside), methyl-β-glucoside (or methyl-β-glucopyranoside), N-acetyl-D-glucosamine, D-ribose, L-ribose, D-psicose, sorbitol, xylitol, mannitol, arabitol, ribitol, erythritol, maltose, maltotriose, maltotetraose, maltopentaose, isomaltose, isomaltotriose, α,α-trehalose, α,β-trehalose, kojibiose, nigerose, cellobiose, gentibiose, isopanose, maltitol, maltotriitol, lactose, sucrose, erlose, isomaltosylglucoside, α-cyclodextrin, β-cyclodextrin, γ-cyclodextrin, or L-ascorbic acid was prepared. To each solution was added panose as a saccharide donor to give an equal concentration, admixed with 10 units/g substrate of a purified specimen of either α-isomaltosyl-transferring enzyme from Bacillus globisporus C9 obtained by the method in Experiment 4, Bacillus globisporus C11 obtained by the method in Experiment 7, Bacillus globisporus N75 obtained by the method in Experiment 11, or Arthrobacter ramosus S1 obtained by the method in Experiment 15, or a partially purified specimen of α-isomaltosyl-transferring enzyme from Arthrobacter globiformis A19 obtained by the method in Experiment 18, followed by adjusting the saccharide concentration to 3.2% (w/v). The mixtures thus obtained were enzymatically reacted at 30° C. and Ph 6.0 for 24 hours. The saccharide composition of the resulting reaction mixtures were analyzed on gas chromatography (abbreviated as “GLC” hereinafter) for monosaccharides and disaccharides as testing saccharides, and on HPLC for tri- or higher-saccharides as testing saccharides to confirm whether these saccharides can be used as transferring acceptors for the above enzymes with an index of the positive or negative formation of a saccharide transferred product. In performing GLC, the following apparatuses and conditions were used: GLC apparatus, “GC-16A” commercialized by Shimadzu Corporation, Tokyo, Japan; column, a stainless-steel column, 3 mm in diameter and 2 m in length, packed with 2% “SILICONE OV-17/[…]”, commercialized by GL Sciences Inc., Tokyo, Japan; carrier gas, nitrogen gas at a flow rate of 40 ml/min under temperature conditions of increasing from 160° C. to 320° C. at an increasing temperature rate of 7.5° C./min; and detection, a hydrogen flame ionization detector. In the case of HPLC analysis, the apparatuses and conditions used were: HPLC apparatus, “CCPD” commercialized by Tosoh Corporation, Tokyo, Japan; column, “ODS-AQ-303” commercialized by YMC Co., Ltd., Tokyo, Japan; eluent, water at a flow rate of 0.5 ml/min; and detection, a differential refractometer.

[2] = test system: α-isomaltosyl-transferring enzyme from Arthrobacter ramosus S1; details: panose as saccharide donor, 10 units/g substrate, 3.2% (w/v), 30° C., pH 6.0, 24 hours
Description: as §1

[3] = test system: α-isomaltosyl-transferring enzyme from Arthrobacter globiformis A19; details: partially purified enzyme, panose as saccharide donor, 10 units/g substrate, 3.2% (w/v), 30° C., pH 6.0, 24 hours
Description: as §1

[4] = test system: α-isomaltosyl-transferring enzyme from Bacillus globisporus C9; details: panose as saccharide donor, 10 units/g substrate, 3.2% (w/v), 30° C., pH 6.0, 24 hours
Description: as §1

[5] = test system: α-isomaltosyl-transferring enzyme from Bacillus globisporus N75; details: panose as saccharide donor, 10 units/g substrate, 3.2% (w/v), 30° C., pH 6.0, 24 hours
Description: as §1

Row | Product of transferring reaction, Enzyme of Strain C11 [1] | Product of transferring reaction, Enzyme of Strain C9 [4] | Product of transferring reaction, Enzyme of Strain N75 [5] | SMILES | Product of transferring reaction, Enzyme of Strain S1 [2] | Product of transferring reaction, Enzyme of Stain A19 [3]
1 | − | − | − | O=C(CO)[C@@H](O)[C@H](O)[C@H](O)CO [D-Fructose, D-fructose] | + (a saccharide-transferred product was formed in an amount of over one percent but below 10% to the total sugars) | ± (a saccharide-transferred product formed in an amount of less than one percent to the total sugars)
2 | − | − | − | O=C[C@H](O)[C@@H](O)[C@@H](O)[C@H](O)CO [D-Galactose, D-galactose] | + (a saccharide-transferred product was formed in an amount of over one percent but below 10% to the total sugars) | ± (a saccharide-transferred product formed in an amount of less than one percent to the total sugars)
3 | − | − | − | O=C[C@@H](O)[C@@H](O)[C@H](O)[C@H](O)CO [D-Mannose, D-mannose] | − | −
4 | − | − | − | O=C(CO)[C@H](O)[C@H](O)[C@H](O)CO [D-Psicose, D-psicose] | ± (a saccharide-transferred product formed in an amount of less than one percent to the total sugars) | ± (a saccharide-transferred product formed in an amount of less than one percent to the total sugars)
5 | − | − | − | O=C[C@H](O)[C@H](O)[C@H](O)CO [D-Ribose, D-ribose] | + (a saccharide-transferred product was formed in an amount of over one percent but below 10% to the total sugars) | ± (a saccharide-transferred product formed in an amount of less than one percent to the total sugars)

The remaining lines, values behind:

Row | SMILES | Product of transferring reaction, Enzyme of Strain C11 [1] | Product of transferring reaction, Enzyme of Strain C9 [4] | Product of transferring reaction, Enzyme of Strain N75 [5] | Product of transferring reaction, Enzyme of Strain S1 [2] | Product of transferring reaction, Enzyme of Stain A19 [3]
6 | OC[C@@H](O)C(O)[C@H](O)CO [Arabitol, arabitol] | − | − | − | ± (a saccharide-transferred product formed in an amount of less than one percent to the total sugars) | −
7 | O=C[C@@H](O)[C@H](O)[C@H](O)CO [D-Arabinose, D-arabinose] | ± (a saccharide-transferred product formed in an amount of less than one percent to the total sugars) | ± (a saccharide-transferred product formed in an amount of less than one percent to the total sugars) | ± (a saccharide-transferred product formed in an amount of less than one percent to the total sugars) | + (a saccharide-transferred product was formed in an amount of over one percent but below 10% to the total sugars) | ± (a saccharide-transferred product formed in an amount of less than one percent to the total sugars)
8 | C[C@@H](O)[C@H](O)[C@H](O)[C@@H](O)C=O [D-Fucose, D-fucose] | ± (a saccharide-transferred product formed in an amount of less than one percent to the total sugars) | ± (a saccharide-transferred product formed in an amount of less than one percent to the total sugars) | ± (a saccharide-transferred product formed in an amount of less than one percent to the total sugars) | + (a saccharide-transferred product was formed in an amount of over one percent but below 10% to the total sugars) | ± (a saccharide-transferred product formed in an amount of less than one percent to the total sugars)
9 | O=C[C@H](O)[C@@H](O)[C@H](O)[C@H](O)CO [D-Glucose, D-glucose] | ++ (a saccharide-transferred product was formed in an amount of over 10% to the total sugars) | ++ (a saccharide-transferred product was formed in an amount of over 10% to the total sugars) | ++ (a saccharide-transferred product was formed in an amount of over 10% to the total sugars) | ++ (a saccharide-transferred product was formed in an amount of over 10% to the total sugars) | ++ (a saccharide-transferred product was formed in an amount of over 10% to the total sugars)
10 | O=C[C@H](O)[C@@H](O)[C@H](O)CO [D-Xylose, D-xylose] | ++ (a saccharide-transferred product was formed in an amount of over 10% to the total sugars) | ++ (a saccharide-transferred product was formed in an amount of over 10% to the total sugars) | ++ (a saccharide-transferred product was formed in an amount of over 10% to the total sugars) | ++ (a saccharide-transferred product was formed in an amount of over 10% to the total sugars) | ++ (a saccharide-transferred product was formed in an amount of over 10% to the total sugars)
11 | OC[C@H]1O[C@@](CO)(O[C@H]2O[C@H](CO)[C@@H](O[C@H]3O[C@H](CO)[C@@H](O)[C@H](O)[C@H]3O)[C@H](O)[C@H]2O)[C@@H](O)[C@@H]1O [Erlose, erlose] | + (a saccharide-transferred product was formed in an amount of over one percent but below 10% to the total sugars) | + (a saccharide-transferred product was formed in an amount of over one percent but below 10% to the total sugars) | + (a saccharide-transferred product was formed in an amount of over one percent but below 10% to the total sugars) | + (a saccharide-transferred product was formed in an amount of over one percent but below 10% to the total sugars) | + (a saccharide-transferred product was formed in an amount of over one percent but below 10% to the total sugars)
